Reference: ChEMBL document CHEMBL1201862, “PubChem BioAssay data set” (2004)
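Where inhibition never reached the appropriate level, the endpoint shown equals the highest concentration tested. Otherwise, values were interpolated linearly from a five-concentration, 48-hour dose response in 96-well plates. Here, GI50 denotes the concentration required for 50% inhibition of growth.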 The source made the active and inactive calls. Rule as the data show it: active = GI50 up to about 1.1 µM and inactive = higher.

Tests used:
Assay in all cases: inhibition of tumour cell growth, NCI panel, 48 h
[1] = system: MDA-N
[2] = system: OVCAR-8
[3] = system: NCI-H522
[4] = system: COLO 205
[5] = system: U-251
[6] = system: Malme-3M
[7] = system: SK-MEL-2
[8] = system: SK-OV-3
[9] = system: UACC-62
[10] = system: A549
[11] = system: IGROV-1
[12] = system: NCI/ADR-RES
[13] = system: TK-10
[14] = system: 786-0
[15] = system: SW-620
[16] = system: K562
[17] = system: HCC 2998
[18] = system: SF-295
[19] = system: HOP-62
[20] = system: ACHN

Measured: GI50

Cc1ccc(NC(=O)c2cc(S(=O)(=O)Nc3n[nH]c(=O)n3-c3ccccc3)c(S)cc2Cl)cc1
inactive: [1] > 100 µM | [2] > 100 µM | [3] > 100 µM | [4] > 100 µM | [5] > 100 µM | [6] > 100 µM | [7] > 100 µM | [8] > 100 µM | [9] > 100 µM | [10] > 100 µM | [11] > 100 µM | [12] > 100 µM | [13] > 100 µM | [14] > 100 µM | [15] > 100 µM | [16] > 100 µM | [17] > 100 µM

CCN1CN(c2ccccc2)C2(CCN(CC3COc4ccccc4O3)CC2)C1=O (configuration not stated)
inactive: [18] 39.9 µM | [1] 2.28 µM | [2] 34.7 µM | [3] 18 µM | [4] 15.7 µM | [5] 30.6 µM | [6] 16.9 µM | [7] 13.2 µM | [8] 28.6 µM | [9] 23.3 µM | [10] 36.6 µM | [11] 53.7 µM | [12] 37.2 µM | [13] 25.8 µM | [19] 35.6 µM | [14] 47.9 µM | [15] 47.8 µM | [16] 37.9 µM | [20] 23.1 µM

COC(=O)/C(C#N)=C(/NCCN)Nc1ccccc1
inactive: [18] > 100 µM | [1] > 100 µM | [2] > 100 µM | [3] > 100 µM | [4] > 100 µM | [5] > 100 µM | [6] > 100 µM | [7] > 100 µM | [8] > 100 µM | [10] > 100 µM | [11] > 100 µM | [12] > 100 µM | [13] > 100 µM | [19] > 100 µM | [14] > 100 µM | [15] > 100 µM | [16] > 100 µM | [20] > 100 µM | [17] > 100 µM

CC(=O)Oc1ccc2oc(=O)cc(C)c2c1
inactive: [18] > 100 µM | [1] > 100 µM | [2] > 100 µM | [3] > 100 µM | [4] > 100 µM | [5] > 100 µM | [6] > 100 µM | [7] > 100 µM | [10] > 100 µM | [11] > 100 µM | [12] > 100 µM | [13] > 100 µM | [19] > 100 µM | [14] > 100 µM | [15] > 100 µM | [16] > 100 µM | [20] > 100 µM | [17] > 100 µM

COc1cc(C2S/C(=C/c3ccccc3)C(=O)N2c2cccc(Cl)c2)cc(OC)c1OC (configuration not stated)
inactive: [18] 33.7 µM | [1] 30.2 µM | [2] 57.8 µM | [3] 18.2 µM | [4] > 100 µM | [5] 57.7 µM | [7] 62.7 µM | [8] > 100 µM | [9] 9.4 µM | [10] 78.3 µM | [11] 56.9 µM | [12] 34.5 µM | [13] > 100 µM | [14] 33.3 µM | [15] 46 µM | [16] 21.1 µM | [20] 30.6 µM | [17] 46.1 µM

COc1nc2c(c(=O)[nH]1)N=C(c1ccc([N+](=O)[O-])cc1)CC(c1ccccc1)N2 (configuration not stated)
inactive: [18] > 100 µM | [1] > 100 µM | [2] > 100 µM | [3] 66.4 µM | [4] > 100 µM | [5] > 100 µM | [6] > 100 µM | [7] > 100 µM | [9] 59.2 µM | [10] 83.4 µM | [11] > 100 µM | [12] > 100 µM | [19] > 100 µM | [14] > 100 µM | [15] > 100 µM | [16] 58.2 µM | [20] 76.4 µM | [17] > 100 µM

CC(C)(C)c1cc(Br)c(O)c(CN(Cc2cc(C(C)(C)C)cc(Br)c2O)C2CCCCC2)c1
inactive: [18] 12.7 µM | [1] 14.5 µM | [2] 15.1 µM | [3] 12.6 µM | [4] 11.2 µM | [5] 13.9 µM | [6] 11.8 µM | [7] 13.1 µM | [8] 15.8 µM | [9] 12.7 µM | [10] 14.1 µM | [11] 15.3 µM | [12] 12 µM | [13] 15.8 µM | [19] 15.2 µM | [14] 14.6 µM | [15] 13.1 µM | [16] 13.3 µM | [20] 14.9 µM

COC(=O)C1=C(CCCCO[Si](C)(C)C(C)(C)C)NC(=O)N2[C@@H](CCOCc3ccccc3)CC[C@H]12
inactive: [18] 26 µM | [1] 17.6 µM | [3] 11.1 µM | [4] 18 µM | [5] 14.4 µM | [6] 19.4 µM | [7] 16.2 µM | [8] 45.3 µM | [9] 24.3 µM | [10] 14.8 µM | [12] 15.3 µM | [13] 40.3 µM | [19] 24.2 µM | [14] 15.9 µM | [16] 25.1 µM | [20] 29.1 µM | [17] 24.4 µM

Clc1ncnc(Cl)c1Cl
inactive: [18] > 100 µM | [1] > 100 µM | [2] > 100 µM | [3] > 100 µM | [4] > 100 µM | [5] > 100 µM | [6] > 100 µM | [8] > 100 µM | [9] > 100 µM | [10] > 100 µM | [11] > 100 µM | [12] > 100 µM | [13] > 100 µM | [19] > 100 µM | [14] > 100 µM | [15] > 100 µM | [16] > 100 µM | [20] > 100 µM | [17] > 100 µM

CN(C)/C=N/S(=O)(=O)c1nn2c(C=O)c(-c3ccccc3)nc2s1
inactive: [18] 52.8 µM | [1] 10.2 µM | [2] 8.41 µM | [3] 3.37 µM | [4] 4.53 µM | [5] 15.9 µM | [6] 12.9 µM | [7] 43 µM | [8] > 80.5 µM | [9] 18.2 µM | [10] 26.6 µM | [12] 23.2 µM | [13] 12.9 µM | [19] 47.2 µM | [14] 5.62 µM | [15] 3.76 µM | [16] 3.9 µM | [20] 5.65 µM | [17] 36.1 µM

N#CCC1(c2ccc(Cl)cc2)NC(=O)c2ccccc21 (configuration not stated)
inactive: [18] > 100 µM | [1] > 100 µM | [2] > 100 µM | [3] > 100 µM | [4] > 100 µM | [5] > 100 µM | [6] > 100 µM | [7] > 100 µM | [8] > 100 µM | [9] > 100 µM | [10] > 100 µM | [11] > 100 µM | [12] > 100 µM | [13] 96.2 µM | [19] > 100 µM | [14] > 100 µM | [15] > 100 µM | [16] > 100 µM | [20] > 100 µM
